Source: patent US20210196675A1, “USE OF GINKGO BILOBA TERPENE LACTONE IN PREPARATION OF DRUGS FOR PREVENTION AND/OR TREATMENT OF TREMORS AND HEALTHCARE PRODUCTS” (CHENGDU BAIYU PHARMACEUTICAL CO., LTD., priority 2018, published 2021)
Where a name gives a salt, the structure may show the parent alone.

Assays:
[1] = system: mice with essential tremor; test: Rotating rod test in harmaline induced mouse model of essential tremor; type: in vivo, ICR male mice; conditions: for Residence Time on Rod, Time 0: 15 minutes after modeling with harmaline, immediately before administration; for Residence Time on Rod, Time 0 / Residence Time on Rod, 30 min / Residence Time on Rod, 60 min / Residence Time on Rod, 90 min / Residence Time on Rod, Pre-harmaline: mean ± SD; for Residence Time on Rod, 30 min: 30 min after time 0/administration; for Residence Time on Rod, 30 min / Residence Time on Rod, 60 min / Residence Time on Rod, 90 min: test groups 5 mg/kg·bw intraperitoneal, propranolol 2 mg/kg·bw gavage; for Residence Time on Rod, 60 min: 60 min after time 0/administration; for Residence Time on Rod, 90 min: 90 min after time 0/administration; for Ratio of area under the curve of each group to area under the curve of the model control group: area under the rod exercise ability recovery curve, model control group = 1, normal control group 6.47; for residence time on rod compared with model control group (in words): at each time point 30 min, 60 min, 90 min; for residence time on rod compared with model control group (in words) / recovery of exercise ability in the rotating rod test compared with model control (in words): p<0.05; for Residence Time on Rod, Pre-harmaline: baseline before harmaline and before administration, 10 mice per group, max 180 seconds; for recovery of exercise ability in the rotating rod test compared with model control (in words): from area under the curve, Table 2
From the text: Effect of Ginkgo biloba terpene lactone on the Mouse Model of Essential Tremor Induced by Harmaline
The following animals are used: 100 […] (ICR) male mice of SPF grade, weighted 18-22 g, purchased from Chengdu Dashuo Experimental Animal Co., Ltd., with the animal production license number of SCXK (Sichuan) 2015-030.
100 mice were randomly assigned to ear label number and randomly divided into 10 groups according to weight stratified random number method, with 10 mice in each group.
The groups are: normal control group, model control group, propranolol hydrochloride tablet control group, Ginkgo biloba leave extract injection solution control group, ginkgolide injection group, ginkgolide A group, ginkgolide B group, bilobalide group, ginkgolide B/bilobalide group (GB:BB=1:1 w/w) and ginkgolide A/B/C group (A:B:C=1:1:1 w/w/w).
The normal control group and the model control group were administrated 0.9% sodium chloride injection by intraperitoneal injection at 0.1 mL/10 g·bw.
The hydrochloride tablet control group was administrated by gavage a solution (prepared with 0.9% sodium chloride injection) at 2 mg/kg·bw.
Ginkgolide injection group, ginkgolide A group, ginkgolide B group, bilobalide group, ginkgolide B/bilobalide group, ginkgolide A/B/C group were administrated by intraperitoneal injection at 5 mg/kg·bw.
Ginkgo biloba leave extract injection solution control group was administered by intraperitoneal injection at 5 mg/kg·bw.
On the day before the rotating rod test, all mice were given rotating rod training, so that they were familiar with the relevant movements and were able to maintain balance by climbing continuously, without falling from the rotating rod at a low rotating speed (10 circles/min).
First, a rotating rod test was performed on all mice. The result was recorded as Pre-harmaline, used as the basic value of their exercise ability.
15 minutes after modeling, the time when it is observed that the mice given harmaline show obvious tremor, reduced activity and ataxia symptoms, was took as time 0. A rotating rod test was performed on all mice at time 0. Then the mice were administered immediately.
After time 0, a rotating rod test was performed on all mice at time 30 min (30 min), time 60 min (60 min), and time 90 min (90 min).
Rotary rod test method: the mice were placed on the Rota Rod Fatigue Tester, and adapted for 20 seconds. After the mice stood steady on the rod, the tester was started and the rod was accelerated at a constant rate according to the setting. Each mouse's residence time on the rod, from the beginning of the test to the time when falling off the rod, was recorded respectively. The Rota Rod Fatigue Tester supports up to 6 channels for simultaneous testing.
The rod is set to rotate at an initial speed of 5 circles/min (5 c/min) which is increased at a constant rate to a maximum speed of 30 circles/min (30c/min) during 120 seconds, and kept at the maximum speed for 60 seconds. Therefore, each test costs 180 seconds in total, and the mice that had not yet fallen off the rod at the end of 180 seconds was recorded as having a residence time of 180 seconds on the rod.
Exercise ability change curves of the mice in each group were drawn, and the area under the curve was calculated.
The experimental data were processed by using a SPSS 19.0 statistical software. The measurement data are expressed as mean±standard deviation (±SD). Data normality test was performed using the Kolmogorov-Smirnov method.

[2] = system: Patients with Essential Tremor; test: Observation of dropping pills on patients with essential tremor (tremor score, adverse reactions); type: in vivo, human; conditions: Patient 2, general information before treatment
From the text: The following 6 items related to tremor are scored: 1) patient complaint; 2) upper limb tremor procedure; 3) head, jaw, tongue and lower limb tremor degree; 4) full water test; 5) dressing, eating, buttoning and chopstick using; and 6) drawing circles and straight lines. The score for each item is classified as: normal (scored 0 piont), mild (scored 1 point), moderate (scored 2 points) and severe (scored 3 points).
Ineffective: the difference in tremor score before and after the treatment is −1 to 1.
(§1) Deterioration: the difference in tremor score before and after the treatment is ≤−2.

[3] = system: Patients with Vascular Tremor; test: Observation of dropping pills on patients with vascular tremor (tremor score, adverse reactions); type: in vivo, human; conditions: Patients 1, 2, 3, general information before treatment
From the text: Diagnosis criteria: A. Reduced movement, muscle rigidity, forward gait, broken steps and reciprocating; B. Positive signs of the nervous system; C. A history of hypertension and cerebral arteriosclerosis.
Exclusion criteria: Tremor paralysis caused by drugs and other diseases are excluded.
The following 6 items related to tremor are scored: 1) patient complaint; 2) upper limbs tremor procedure; 3) head, jaw, tongue and lower limbs tremor degree; 4) full water test; 5) dressing, eating, buttoning and chopsticks using; 6) drawing circles and straight lines. The score for each item is classified as: normal (scored 0 piont), mild (scored 1 point), moderate (scored 2 points) and severe (scored 3 points).
Ineffective: the difference in tremor score before and after the treatment is −1 to 1
as §1

Row | SMILES | Residence Time on Rod, Time 0 [1] [s] | Residence Time on Rod, 30 min [1] [s] | Residence Time on Rod, 60 min [1] [s] | Residence Time on Rod, 90 min [1] [s] | Ratio of area under the curve of each group to area under the curve of the model control group [1] | residence time on rod compared with model control group (in words) [1] | Residence Time on Rod, Pre-harmaline [1] [s] | recovery of exercise ability in the rotating rod test compared with model control (in words) [1] | effect in this patient (patient history) [2] | effect in this patient (patient history) [3]
1 | CC(C)(C)[C@]1(O)CC2OC(=O)CC23C(=O)OC2OC(=O)[C@H](O)C231 (stereo partly shown) [Bilobalide, bilobalide] | 40.0 ± 15.6 | 48.2 ± 12.8 | 61.2 ± 15.2 | 90.6 ± 13.9 | 2.20 | significantly higher than that of the model control group | 171.6 ± 17.9 | significantly better than that of model control mice | – | –
2 | C[C@@H]1C(=O)O[C@H]2C[C@@]34[C@H]5C[C@@H](C(C)(C)C)[C@]36[C@@H](OC(=O)[C@@H]6O)O[C@@]4(C(=O)O5)[C@]21O [Ginkgolide A, ginkgolide A] | 42.6 ± 10.8 | 50.8 ± 10.9 | 60.3 ± 13.1 | 91.4 ± 11.5 | 2.24 | significantly higher than that of the model control group | 170.6 ± 21.2 | significantly better than that of model control mice | – | –
3 | CC1C(=O)OC2C(O)C34C5CC(C(C)(C)C)C36C(OC(=O)C6O)OC4(C(=O)O5)C12O (stereo not shown) [Ginkgolide B, ginkgolide B] | 43.9 ± 12.3 | 52.6 ± 9.8 | 65.8 ± 12.8 | 100.2 ± 14.2 | 2.39 | significantly higher than that of the model control group | 175.7 ± 18.3 | significantly better than that of model control mice | – | –
4 | N[C@@H](Cc1ccc(O)c(O)c1)C(=O)O [Levodopa] | – | – | – | – | – | – | – | – | no effect | no effect
5 | CC(C)NCC(O)COc1cccc2ccccc12 (stereo not shown) [Propranolol hydrochloride tablet, Propranolol hydrochloride, reference compound] | 41.6 ± 12.8 | 60.1 ± 12.8 | 77.6 ± 10.3 | 119.3 ± 13.0 | 2.74 | significantly higher than that of the model control group | 176.6 ± 12.9 | significantly better than that of model control mice | – | –
